Values after ≈ are worked out from the molar mass of the structure shown.
Legend:
[1] = tested on: HeLa CD4 LTR β-gal cells; assay: HIV attachment inhibition assay (β-galactosidase chemiluminescence)
[2] = molecular target: T1, gp120/CD4 interaction (Human immunodeficiency virus type 1 group M subtype B, UniProt P03375)
[3] = tested on: HeLa CD4 LTR β-gal cells; assay: Compound toxicity in HeLa CD4 LTR β-gal cells (XTT)
[4] = molecular target: T1, gp120/CD4 interaction; assay: cell-based

## COc1cc(-c2ccc(/N=N/c3ccc4c(S(=O)(=O)O)cc(S(=O)(=O)O)c(N)c4c3O)c(OC)c2)ccc1/N=N/c1ccc2c(S(=O)(=O)O)cc(S(=O)(=O)O)c(N)c2c1O [Chicago Sky Blue]
[1]; Human immunodeficiency virus 1, HeLa
  IC50: 0.53 µg/mL (≈ 0.586 µM)
[1]; general virus attachment
  TI (=IC50/TC50): >18
[2]
  TI (=IC50/TC50): >5
[3]; Table 10, XTT sister plate
  TC50: >10 µg/mL
[3]; Table 11
  TC50: >10 µg/mL
[4]
  IC50: 2280 nM

Reference: patent publication US6534049B2, “Synthetic soil-extract materials and medicaments for human immunodeficiency viruses based thereon” (priority 1997, dated 2003)
